Measured values as given in ChEMBL document CHEMBL4145470, “Efficient synthesis and first regioselective C-6 direct arylation of imidazo[2,1-c][1,2,4]triazine scaffold and their evaluation in H2O2-induced oxidative stress” (Eur J Med Chem, 2018).
Calls of active or inactive are those of the source. No cut-off for these calls is given here.

How the values were obtained:
[1] = target: RAC-alpha serine/threonine-protein kinase (Homo sapiens) (UniProt P31749); test: Induction of Akt phosphorylation in H2O2-treated human SH-SY5Y cells at 0.1 uM by ELISA; format: cell-based
[2] = Cytoprotective activity against H2O2-induced apoptosis in human SH-SY5Y cells assessed as relative cleaved caspase-7 levels at 1 uM (reference value: 1.025 +/- 0.120)
[3] = target: T1, Mitogen-activated protein kinase; ERK1/ERK2 (Homo sapiens) (UniProt P27361+P28482); test: Inhibition of H2O2-induced p44/42 MAPK phosphorylation in human SH-SY5Y cells at 1 uM; format: cell-based
[4] = system: SH-SY5Y; test: Cytoprotective activity against H2O2-induced apoptosis in human SH-SY5Y cells assessed as increase in Bcl-2/Bax ratio at 1 uM preincubated for 24 hrs followed by H2O2 addition measured after 1 hr by Western blot analysis; format: functional, cell-based
[5] = system: SH-SY5Y; test: Cytotoxicity against human SH-SY5Y cells at 1 to 10 uM after 24 hrs by MTT assay; format: cell-based
[6] = target: Eukaryotic translation initiation factor 2 subunit 1 (Homo sapiens) (UniProt P05198); test: Inhibition of H2O2-induced eIF2alpha phosphorylation in human SH-SY5Y cells at 1 uM; format: cell-based
[7] = target: RAC-alpha serine/threonine-protein kinase (Homo sapiens) (UniProt P31749); test: Induction of Akt phosphorylation in H2O2-treated human SH-SY5Y cells assessed as increase in pBad levels at 0.1 uM by ELISA; format: cell-based
[8] = system: SH-SY5Y; test: Cytoprotective activity against H2O2-induced oxidative stress in human SH-SY5Y cells assessed as increase in cell viability preincubated for 24 hrs followed by H2O2 addition and measured after 1 hr by MTT assay; format: functional, cell-based
[9] = system: SH-SY5Y; test: Cytoprotective activity against H2O2-induced oxidative stress in human SH-SY5Y cells assessed as cell viability at 1 uM preincubated for 24 hrs followed by H2O2 addition and measured after 1 hr by MTT assay (reference value: 37.88 +/- 8.52%); format: functional; conditions: read-out: Activity
[10] = system: SH-SY5Y; test: Cytoprotective activity against H2O2-induced oxidative stress in human SH-SY5Y cells assessed as cell viability at 0.1 uM preincubated for 24 hrs followed by H2O2 addition and measured after 1 hr by MTT assay (reference value: 37.88 +/- 8.52%); format: functional; conditions: read-out: Activity
[11] = system: SH-SY5Y; test: Cytoprotective activity against H2O2-induced oxidative stress in human SH-SY5Y cells assessed as cell viability at 10 uM preincubated for 24 hrs followed by H2O2 addition and measured after 1 hr by MTT assay (reference value: 37.88 +/- 8.52%); format: functional; conditions: read-out: Activity
[12] = system: SH-SY5Y; test: Cytoprotective activity against H2O2-induced apoptosis in human SH-SY5Y cells assessed as decrease in Bax levels at 1 uM preincubated for 24 hrs followed by H2O2 addition measured after 1 hr by Western blot analysis; format: functional, cell-based
[13] = system: SH-SY5Y; test: Cytoprotective activity against H2O2-induced apoptosis in human SH-SY5Y cells assessed as relative Bcl-2 levels at 1 uM preincubated for 24 hrs followed by H2O2 addition measured after 1 hr by Western blot analysis (reference value: 2.084 +/- 0.078); format: functional
[14] = target: Eukaryotic translation initiation factor 2 subunit 1 (Homo sapiens) (UniProt P05198); test: Inhibition of H2O2-induced eIF2alpha phosphorylation in human SH-SY5Y cells at 0.1 uM; format: cell-based
[15] = system: SH-SY5Y; test: Cytoprotective activity against H2O2-induced apoptosis in human SH-SY5Y cells assessed as decrease in Bax levels at 0.1 uM preincubated for 24 hrs followed by H2O2 addition measured after 1 hr by Western blot analysis; format: functional, cell-based
[16] = system: SH-SY5Y; test: Cytoprotective activity against H2O2-induced apoptosis in human SH-SY5Y cells assessed as increase in Bcl-2/Bax ratio at 0.1 uM preincubated for 24 hrs followed by H2O2 addition measured after 1 hr by Western blot analysis; format: functional, cell-based
[17] = system: SH-SY5Y; test: Cytoprotective activity against H2O2-induced apoptosis in human SH-SY5Y cells assessed as increase in Bcl-2 levels at 0.1 uM preincubated for 24 hrs followed by H2O2 addition measured after 1 hr by Western blot analysis; format: functional, cell-based
[18] = system: SH-SY5Y; test: Cytoprotective activity against H2O2-induced apoptosis in human SH-SY5Y cells assessed as relative cleaved PARP levels at 0.1 uM (reference value: 0.725 +/- 0.06); format: functional
[19] = target: T1, Mitogen-activated protein kinase; ERK1/ERK2 (Homo sapiens); test: Inhibition of H2O2-induced p44/42 MAPK phosphorylation in human SH-SY5Y cells at 0.1 uM; format: cell-based
[20] = system: SH-SY5Y; test: Cytoprotective activity against H2O2-induced apoptosis in human SH-SY5Y cells assessed as relative cleaved caspase-3 levels at 0.1 uM (reference value: 0.875 +/- 0.035); format: functional
[21] = target: T1, Mitogen-activated protein kinase; ERK1/ERK2 (Homo sapiens); test: Inhibition of H2O2-induced p44/42 MAPK phosphorylation in human SH-SY5Y cells at 10 uM; format: cell-based
[22] = system: SH-SY5Y; test: Cytoprotective activity against H2O2-induced apoptosis in human SH-SY5Y cells assessed as increase in Bcl-2/Bax ratio at 10 uM preincubated for 24 hrs followed by H2O2 addition measured after 1 hr by Western blot analysis; format: functional, cell-based
[23] = system: SH-SY5Y; test: Cytoprotective activity against H2O2-induced apoptosis in human SH-SY5Y cells assessed as relative Bcl-2 levels at 10 uM preincubated for 24 hrs followed by H2O2 addition measured after 1 hr by Western blot analysis (reference value: 2.084 +/- 0.078); format: functional

Sequence of RAC-alpha serine/threonine-protein kinase (Homo sapiens) (P31749 whole entry): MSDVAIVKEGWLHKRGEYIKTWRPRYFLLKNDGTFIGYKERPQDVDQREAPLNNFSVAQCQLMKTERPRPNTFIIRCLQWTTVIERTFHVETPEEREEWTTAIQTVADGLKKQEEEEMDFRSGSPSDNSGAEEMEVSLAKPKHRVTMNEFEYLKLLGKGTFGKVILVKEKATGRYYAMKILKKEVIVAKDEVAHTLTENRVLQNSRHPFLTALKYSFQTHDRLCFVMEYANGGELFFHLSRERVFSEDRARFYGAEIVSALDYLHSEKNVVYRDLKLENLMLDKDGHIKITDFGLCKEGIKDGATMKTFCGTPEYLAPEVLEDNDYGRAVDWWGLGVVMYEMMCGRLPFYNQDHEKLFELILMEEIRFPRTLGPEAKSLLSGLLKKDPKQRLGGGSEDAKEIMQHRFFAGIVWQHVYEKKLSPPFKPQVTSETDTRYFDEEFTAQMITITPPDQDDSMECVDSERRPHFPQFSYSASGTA
T1 sequence (P27361 whole entry, looked up): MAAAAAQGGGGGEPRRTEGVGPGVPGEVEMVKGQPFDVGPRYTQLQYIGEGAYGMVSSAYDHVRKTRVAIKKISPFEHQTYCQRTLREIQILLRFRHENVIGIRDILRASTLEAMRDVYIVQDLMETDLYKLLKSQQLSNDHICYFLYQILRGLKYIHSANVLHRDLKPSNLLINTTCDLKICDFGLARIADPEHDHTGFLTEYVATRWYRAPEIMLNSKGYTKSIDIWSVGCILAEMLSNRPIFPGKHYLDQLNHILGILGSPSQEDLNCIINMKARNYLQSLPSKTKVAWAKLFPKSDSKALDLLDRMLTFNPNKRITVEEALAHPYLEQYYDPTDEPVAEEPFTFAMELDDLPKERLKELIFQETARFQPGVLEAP
T1 sequence (P28482 whole entry, looked up): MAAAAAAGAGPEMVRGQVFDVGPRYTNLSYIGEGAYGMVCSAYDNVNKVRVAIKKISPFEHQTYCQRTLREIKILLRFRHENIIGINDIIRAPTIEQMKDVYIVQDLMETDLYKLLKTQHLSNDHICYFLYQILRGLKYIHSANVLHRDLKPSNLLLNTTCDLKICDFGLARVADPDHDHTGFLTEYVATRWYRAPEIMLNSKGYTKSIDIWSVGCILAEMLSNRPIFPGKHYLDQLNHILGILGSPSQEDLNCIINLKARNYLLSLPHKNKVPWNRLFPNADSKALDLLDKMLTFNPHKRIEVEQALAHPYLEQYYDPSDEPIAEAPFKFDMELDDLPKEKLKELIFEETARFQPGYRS
Sequence of Eukaryotic translation initiation factor 2 subunit 1 (Homo sapiens) (P05198 whole entry): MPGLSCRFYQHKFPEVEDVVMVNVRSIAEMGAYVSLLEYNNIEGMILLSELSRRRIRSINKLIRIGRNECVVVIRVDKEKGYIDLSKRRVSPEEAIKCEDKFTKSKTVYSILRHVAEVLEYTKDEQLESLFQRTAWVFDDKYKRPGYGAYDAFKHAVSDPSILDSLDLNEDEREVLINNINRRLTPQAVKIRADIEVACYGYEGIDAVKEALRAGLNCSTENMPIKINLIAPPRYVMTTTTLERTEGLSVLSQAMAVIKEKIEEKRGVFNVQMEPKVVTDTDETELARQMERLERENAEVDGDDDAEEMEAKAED

COc1ccc(-c2nc3nnccn3c2-c2ccc(C)c([N+](=O)[O-])c2)cc1
Activity [1]: Active
fold change (FC) [2]: 0.834
inhibition [3]: Active
Activity [4]: Active
Activity [5]: Non-Toxic
inhibition [6]: inactive
Activity [7]: Active
Activity [8]: Dose-dependent effect
viability at 1 µM [9]: 79.6%
viability at 0.1 µM [10]: 49.5%
viability at 10 µM [11]: 83.3%
Activity [12]: Active
fold change (FC) [13]: 2.398

COc1ccc(-c2nc3nnccn3c2-c2cccc(C#N)c2)cc1
Activity [5]: Non-Toxic
inhibition [14]: inactive
Activity [8]: Dose-dependent effect
viability at 1 µM [9]: 55.5%
viability at 0.1 µM [10]: 66.6%
viability at 10 µM [11]: 54.3%

COc1ccc(-c2nc3nnccn3c2-c2cccc(F)c2)cc1
Activity [5]: Non-Toxic
Activity [8]: Dose-dependent effect
viability at 1 µM [9]: 51.3%
viability at 0.1 µM [10]: 54.6%
viability at 10 µM [11]: 66.4%

COc1ccc(-c2nc3nnccn3c2-c2ccc(OC(F)(F)F)cc2)cc1
Activity [1]: Active
Activity [15]: Active
Activity [5]: Non-Toxic
inhibition [14]: inactive
Activity [7]: Active
Activity [8]: Dose-dependent effect
viability at 1 µM [9]: 54.8%
viability at 0.1 µM [10]: 78.6%
viability at 10 µM [11]: 66.8%
Activity [16]: Active
Activity [17]: Active

COc1ccc(-c2nc3nnccn3c2-c2cccs2)cc1
Activity [1]: Active
Activity [4]: Active
Activity [5]: Non-Toxic
inhibition [6]: inactive
Activity [7]: inactive
Activity [8]: Dose-dependent effect
viability at 1 µM [9]: 70.7%
viability at 0.1 µM [10]: 44.6%
viability at 10 µM [11]: 68.4%
Activity [12]: inactive
fold change (FC) [13]: 2.955

COc1ccc(-c2cn3ccnnc3n2)cc1
Activity [15]: Active
Activity [5]: Non-Toxic
fold change (FC) [18]: 0.62
inhibition [14]: inactive
Activity [8]: Dose-dependent effect
viability at 1 µM [9]: 71.3%
viability at 0.1 µM [10]: 73.9%
inhibition [19]: Active
viability at 10 µM [11]: 60.9%
fold change (FC) [20]: 0.705

COc1ccccc1-c1cn2ccnnc2n1
Activity [1]: Active
Activity [15]: Active
Activity [5]: Non-Toxic
inhibition [14]: inactive
Activity [7]: Active
Activity [8]: Dose-dependent effect
viability at 1 µM [9]: 60.5%
viability at 0.1 µM [10]: 62.7%
viability at 10 µM [11]: 51.1%
Activity [17]: Active

O=[N+]([O-])c1cccc(-c2cn3ccnnc3n2)c1
Activity [5]: Non-Toxic
Activity [8]: Dose-dependent effect
viability at 1 µM [9]: 58.9%
viability at 0.1 µM [10]: 61.5%
viability at 10 µM [11]: 65.7%

COc1ccc(-c2nc3nnccn3c2-c2ccc(OC)cc2)cc1
inhibition [21]: Active
Activity [22]: Active
Activity [5]: Non-Toxic
inhibition [6]: inactive
Activity [8]: Dose-dependent effect
viability at 1 µM [9]: 65.5%
viability at 0.1 µM [10]: 49.6%
viability at 10 µM [11]: 75.2%
fold change (FC) [23]: 3.015

c1ccc(-c2cn3ccnnc3n2)cc1
Activity [1]: Active
Activity [15]: inactive
Activity [5]: Non-Toxic
inhibition [14]: inactive
Activity [7]: Active
Activity [8]: Dose-dependent effect
viability at 1 µM [9]: 72.8%
viability at 0.1 µM [10]: 77.3%
viability at 10 µM [11]: 62.6%

COc1ccc(-c2nc3nnccn3c2-c2ccc([N+](=O)[O-])cc2)cc1
Activity [1]: inactive
Activity [15]: Active
Activity [5]: Non-Toxic
inhibition [14]: inactive
Activity [7]: inactive
Activity [8]: Dose-dependent effect
viability at 1 µM [9]: 56%
viability at 0.1 µM [10]: 81.2%
viability at 10 µM [11]: 74.9%

COc1ccc(-c2nc3nnccn3c2-c2ccncc2)cc1
Activity [5]: Non-Toxic
Activity [8]: Dose-dependent effect
viability at 1 µM [9]: 55.7%
viability at 0.1 µM [10]: 64.1%
viability at 10 µM [11]: 61.5%

COc1ccc(-c2nc3nnccn3c2-c2ccccc2C)cc1
inhibition [3]: Active
Activity [5]: Non-Toxic
inhibition [6]: inactive
Activity [8]: Dose-dependent effect
viability at 1 µM [9]: 73.8%
viability at 0.1 µM [10]: 60.7%
viability at 10 µM [11]: 72.4%
Activity [12]: Active

N#Cc1ccc(-c2cn3ccnnc3n2)cc1
Activity [5]: Non-Toxic
Activity [8]: Dose-dependent effect
viability at 1 µM [9]: 65.4%
viability at 0.1 µM [10]: 67.1%
viability at 10 µM [11]: 54.2%

COc1ccc(-c2nc3nnccn3c2-c2ccccc2)cc1
Activity [1]: Active
Activity [15]: Active
Activity [5]: Non-Toxic
inhibition [14]: inactive
Activity [7]: Active
Activity [8]: Dose-dependent effect
viability at 1 µM [9]: 50.6%
viability at 0.1 µM [10]: 72.9%
viability at 10 µM [11]: 79.7%
Activity [16]: Active
Activity [17]: Active
